Among the data in US7662832B2, “Pyrrolo[2,3-c]pyridine derivatives and processes for the preparation thereof” (priority 2004, dated 2010) are IC50 values, retold here.

Broadly, the IC50 is the concentration that inhibits the measured activity by half.

Structures are written as SMILES. Where a name gives a salt, the structure may show the parent alone.

The assay deals with Proton Pump (H^+/K^+-ATPase) (Sus scrofa, UniProt P19156). Description: Inhibitory effects on proton pump (H^+/K^+-ATPase) activity. In kind it is biochemical. As to conditions: hog gastric vesicles; K^+ stimulated H^+/K^+-ATPase activity; 30 minutes at 37° C.
Chain of Proton Pump (H^+/K^+-ATPase) (P19156 2-1034 limits assumed): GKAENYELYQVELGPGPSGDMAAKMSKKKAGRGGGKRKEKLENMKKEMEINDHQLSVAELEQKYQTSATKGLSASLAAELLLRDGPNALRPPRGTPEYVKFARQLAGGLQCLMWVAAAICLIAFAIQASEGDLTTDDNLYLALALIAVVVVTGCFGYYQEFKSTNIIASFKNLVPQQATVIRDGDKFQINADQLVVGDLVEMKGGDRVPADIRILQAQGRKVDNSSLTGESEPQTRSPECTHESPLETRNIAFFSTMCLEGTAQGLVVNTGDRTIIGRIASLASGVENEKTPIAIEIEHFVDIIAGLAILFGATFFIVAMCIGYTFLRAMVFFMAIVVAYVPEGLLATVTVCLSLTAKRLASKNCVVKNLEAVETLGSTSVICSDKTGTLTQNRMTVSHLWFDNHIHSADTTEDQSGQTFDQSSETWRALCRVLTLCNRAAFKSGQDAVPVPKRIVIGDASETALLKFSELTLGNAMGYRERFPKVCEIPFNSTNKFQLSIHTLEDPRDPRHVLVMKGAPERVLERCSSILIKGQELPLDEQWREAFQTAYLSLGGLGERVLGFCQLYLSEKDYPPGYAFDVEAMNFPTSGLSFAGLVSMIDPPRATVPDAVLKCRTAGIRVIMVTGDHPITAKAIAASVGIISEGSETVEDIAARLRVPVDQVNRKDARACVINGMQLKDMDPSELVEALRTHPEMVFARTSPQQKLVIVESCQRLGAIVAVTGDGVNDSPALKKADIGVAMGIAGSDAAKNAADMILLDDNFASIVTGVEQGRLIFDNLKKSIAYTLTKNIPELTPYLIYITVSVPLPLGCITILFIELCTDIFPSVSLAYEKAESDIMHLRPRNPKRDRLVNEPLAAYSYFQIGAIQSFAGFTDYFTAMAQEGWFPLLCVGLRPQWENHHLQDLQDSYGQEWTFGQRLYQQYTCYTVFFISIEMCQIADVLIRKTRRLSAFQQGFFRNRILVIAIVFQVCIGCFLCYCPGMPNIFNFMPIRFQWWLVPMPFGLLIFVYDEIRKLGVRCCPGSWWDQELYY
Chain of Proton Pump (H^+/K^+-ATPase) (P18434 whole entry partner): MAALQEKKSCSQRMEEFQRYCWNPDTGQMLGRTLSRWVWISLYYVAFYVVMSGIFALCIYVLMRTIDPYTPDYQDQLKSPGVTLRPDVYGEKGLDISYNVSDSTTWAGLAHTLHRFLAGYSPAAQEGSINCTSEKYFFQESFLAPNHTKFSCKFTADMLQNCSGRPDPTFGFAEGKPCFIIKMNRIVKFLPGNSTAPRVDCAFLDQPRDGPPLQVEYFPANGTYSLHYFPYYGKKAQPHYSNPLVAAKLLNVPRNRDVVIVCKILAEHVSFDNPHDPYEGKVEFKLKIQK
For `Cc1c(C)n(CC2CC2)c2c(NCc3ccc(Cl)cc3)nccc12` [Example 227, 7-(4-chlorobenzylamino)-1-cyclopropylmethyl-2,3-dimethyl-1H-pyrrolo[2,3-c]pyridine hydrochloride], the IC50 came out at 73 nM.

Take `CCC1c2ccccc2CCN1c1nccc2c(C)c(C)n(CC)c12` (stereo not shown) [Example 576, 1-ethyl-2-(1-ethyl-2,3-dimethyl-1H-pyrrolo[2,3-c]pyridin-7-yl)-1,2,3,4-tetrahydroisoquinoline hydrochloride]: the 50% inhibitory concentration (IC50) came to 220 nM.

`CCCn1c(C)c(C)c2ccnc(NCc3ccc(C)cc3)c21` [Example 205, 2,3-dimethyl-7-(4-methylbenzylamino)-1-propyl-1H-pyrrolo[2,3-c]pyridine hydrochloride]: the IC50 was 330 nM.

For the molecule `COc1cccc(Cn2c(C)c(C)c3cc(N)nc(N4CCc5ccccc5C4)c32)c1` [Example 848, 7-(3,4-dihydro-1H-isoquinolin-2-yl)-1-(3-methoxybenzyl)-2,3-dimethyl-1H-pyrrolo[2,3-c]pyridin-5-amine hydrochloride], inhibition was half-maximal at 29 nM (IC50).

For `Cc1ccc(Cn2c(C)c(C)c3ccnc(-c4ccc(C)cc4)c32)cc1` [Example 279, 2,3-dimethyl-1-(4-methylbenzyl)-7-(p-tolyl)-1H-pyrrolo[2,3-c]pyridine hydrochloride], inhibition was half-maximal at 231 nM (IC50).

As to `CCCn1c(C)c(C)c2ccnc(NCc3ccccc3Cl)c21` [Example 231, 7-(2-chlorobenzylamino)-2,3-dimethyl-1-propyl-1H-pyrrolo[2,3-c]pyridine hydrochloride], the IC50 was determined as 138 nM.

In the case of `Cc1c(C)n(Cc2cccc(Cl)c2)c2c(N3CCc4ccccc4C3)nc(C(N)=O)cc12` [Example 750, 1-(3-chlorobenzyl)-7-(3,4-dihydro-1H-isoquinolin-2-yl)-2,3-dimethyl-1H-pyrrolo[2,3-c]pyridin-5-carboxamide], the IC50 came to 298 nM.

`Cc1c(C)n(Cc2cccc(F)c2)c2c(CNc3ccc(F)cc3)nccc12` [Example 91, N-[1-(3-fluorobenzyl)-2,3-dimethyl-1H-pyrrolo[2,3-c]pyridin-7-ylmethyl]-4-fluorophenylamine hydrochloride] displayed an IC50 of 209 nM.

The molecule `C=CCn1c(C)c(C)c2cc(C#N)nc(N3CCc4ccccc4C3)c21` [Example 684, 1-allyl-7-(3,4-dihydro-1H-isoquinolin-2-yl)-2,3-dimethyl-1H-pyrrolo[2,3-c]pyridin-5-carbonitrile] showed an IC50 of 490 nM.

Molecule `COc1ccc(Cn2c(C)c(C)c3ccnc(N(C)Cc4ccc(F)cc4)c32)cc1` [Example 156, 7-[N-(4-fluorobenzyl)-N-methyl]amino-1-(4-methoxybenzyl)-2,3-dimethyl-1H-pyrrolo[2,3-c]pyridine hydrochloride] returned an IC50 of 310 nM.

On to `Cc1[nH]c2c(N3CCc4ccc(F)cc4C3C)nccc2c1C` (stereo not shown) [Example 541, 7-fluoro-2-(2,3-dimethyl-1H-pyrrolo[2,3-c]pyridin-7-yl)-1-methyl-1,2,3,4-tetrahydroisoquinoline hydrochloride], for which the IC50 came to 350 nM.

Take `CCCn1c(C)c(C)c2ccnc(N(C)Cc3ccc(F)cc3)c21` [Example 150, 7-[N-(4-fluorobenzyl)-N-methyl]amino-2,3-dimethyl-1-propyl-1H-pyrrolo[2,3-c]pyridine hydrochloride]: 340 nM corresponded to half-maximal inhibition (IC50).

The molecule `COCCn1c(C)c(C)c2ccnc(N3CCc4ccccc4C3)c21` [Example 499, 1-(2-methoxyethyl)-7-(1,2,3,4-tetrahydroisoquinolin-2-yl)-2,3-dimethyl-1H-pyrrolo[2,3-c]pyridine hydrochloride] yielded an IC50 of 65 nM.

`C=CCn1c(C)c(C)c2ccnc(NCc3ccccc3)c21` [Example 176, 1-allyl-7-benzylamino-2,3-dimethyl-1H-pyrrolo[2,3-c]pyridine hydrochloride] yielded an IC50 of 260 nM.

On to `C=CCn1c(C)c(C)c2cc(CN3CCN(C)CC3)nc(N3CCc4ccccc4C3)c21` [Example 879, 2-[1-allyl-2,3-dimethyl-5-(4-methylpiperazin-1-ylmethyl)-1H-pyrrolo[2,3-c]pyridin-7-yl]-1,2,3,4-tetrahydroisoquinoline hydrochloride], for which the IC50 amounted to 50 nM.

Molecule `Cc1c(C)n(Cc2ccccc2)c2c(N3CCc4ccccc4C3)nc(CN3CCN(C)CC3)cc12` [Example 883, 2-[1-benzyl-2,3-dimethyl-5-(4-methylpiperazin-1-ylmethyl)-1H-pyrrolo[2,3-c]pyridin-7-yl]-1,2,3,4-tetrahydroisoquinoline hydrochloride] had an IC50 of 87 nM.

`CCN1CCN(C(=O)c2cc3c(C)c(C)n(Cc4ccccc4)c3c(NCc3ccc(F)cc3)n2)CC1` [Example 907, [1-benzyl-7-(4-fluorobenzylamino)-2,3-dimethyl-1H-pyrrolo[2,3-c]pyridin-5-yl]-(4-ethylpiperazin-1-yl)-methanone hydrochloride] displayed an IC50 of 32 nM.

`CCn1c(C)c(C)c2ccnc(NCc3ccc(F)cc3)c21` [Example 223, 1-ethyl-7-(4-fluorobenzylamino)-2,3-dimethyl-1H-pyrrolo[2,3-c]pyridine hydrochloride]: the IC50 turned out to be 440 nM.

Take `C=CCn1c(C)c(C)c2ccnc(C=Cc3ccccc3)c21` [Example 416, 1-allyl-2,3-dimethyl-7-styryl-1H-pyrrolo[2,3-c]pyridine hydrochloride]: the midpoint of inhibition, the IC50, lay at 120 nM.

With `Cc1ccc(Cn2c(C)c(C)c3ccnc(C=Cc4ccccc4)c32)cc1` [Example 417, 2,3-dimethyl-1-(4-methylbenzyl)-7-styryl-1H-pyrrolo[2,3-c]pyridine hydrochloride], the midpoint of inhibition, the IC50, lay at 370 nM.

For the molecule `C=Cc1ccc(-c2nccc3c(C)c(C)n(CCC(C)C)c23)cc1` [Example 256, 2,3-dimethyl-1-(3-methylbutyl)-7-(4-vinylphenyl)-1H-pyrrolo[2,3-c]pyridine hydrochloride], the IC50 worked out at 310 nM.

Turning to `CCCn1c(C)c(C)c2cc(C(=O)N3CCOCC3)nc(N3CCc4ccccc4C3)c21` [Example 781, [7-(3,4-dihydro-1H-isoquinolin-2-yl)-2,3-dimethyl-1-propyl-1H-pyrrolo[2,3-c]pyridin-5-yl]-(morpholin-4-yl)-methanone hydrochloride], the IC50 came out at 39 nM.

Turning to `Cc1c(C)n(Cc2cccc(F)c2)c2c(N3CCc4ccccc4C3)nc(CNc3ccc(F)cc3)cc12` [Example 866, N-[7-(3,4-dihydro-1H-isoquinolin-2-yl)-1-(3-fluorobenzyl)-2,3-dimethyl-1H-pyrrolo[2,3-c]pyridin-5-ylmethyl]-4-fluorophenylamine hydrochloride], the IC50 amounted to 1030 nM.

`CCC1c2ccccc2CCN1c1nccc2c(C)c(C)[nH]c12` (stereo not shown) [Example 574, 2-(2,3-dimethyl-1H-pyrrolo[2,3-c]pyridin-7-yl)-1-ethyl-1,2,3,4-tetrahydroisoquinoline hydrochloride] showed an IC50 of 420 nM.

The molecule `Cc1c(C)n(Cc2cccc(F)c2)c2c(N3CCc4ccccc4C3)nc(CNC3CCC3)cc12` [Example 870, N-[7-(3,4-dihydro-1H-isoquinolin-2-yl)-1-(3-fluorobenzyl)-2,3-dimethyl-1H-pyrrolo[2,3-c]pyridin-5-ylmethyl]-cyclobutylamine hydrochloride] returned an IC50 of 43 nM.

For `CSc1ccc(-c2nccc3c(C)c(C)n(Cc4ccccc4)c23)cc1` [Example 268, 1-benzyl-2,3-dimethyl-7-(4-methylsulfanylphenyl)-1H-pyrrolo[2,3-c]pyridine hydrochloride], inhibition was half-maximal at 130 nM (IC50).

Regarding `Cc1c(C)n(CC(C)C)c2c(N3CCc4ccccc4C3)nc(C(=O)N3CCN(C)CC3)cc12` [Example 833, [7-(3,4-dihydro-1H-isoquinolin-2-yl)-1-isobutyl-2,3-dimethyl-1H-pyrrolo[2,3-c]pyridin-5-yl]-(4-methylpiperazin-1-yl)-methanone hydrochloride], the IC50 was 43 nM.

`COCCn1c(C)c(C)c2ccnc(CN(C)c3ccc(F)cc3)c21` [Example 120, N-(4-fluorophenyl)-N-[1-(2-methoxyethyl)-2,3-dimethyl-1H-pyrrolo[2,3-c]pyridin-7-ylmethyl]-methylamine hydrochloride] registered an IC50 of 444 nM.

Molecule `COc1cccc(Cn2c(C)c(C)c3cc(C(=O)N4CCSCC4)nc(N4CCc5ccccc5C4)c32)c1` [Example 784, [7-(3,4-dihydro-1H-isoquinolin-2-yl)-1-(3-methoxybenzyl)-2,3-dimethyl-1H-pyrrolo[2,3-c]pyridin-5-yl]-(thiomorpholin-1-yl)-methanone hydrochloride] had an IC50 of 202 nM.

`Cc1c(C)n(Cc2ccccc2F)c2c(N(C)Cc3ccc(F)cc3)nccc12` [Example 147, 1-(2-fluorobenzyl)-7-[N-(4-fluorobenzyl)-N-methyl]amino-2,3-dimethyl-1H-pyrrolo[2,3-c]-pyridine hydrochloride] registered an IC50 of 200 nM.

The molecule `Cc1c(C)n(Cc2ccccc2)c2c(N3CCc4ccccc4C3)nc(C(N)=O)cc12` [Example 745, 1-benzyl-7-(3,4-dihydro-1H-isoquinolin-2-yl)-2,3-dimethyl-1H-pyrrolo[2,3-c]pyridin-5-carboxamide] yielded an IC50 of 112 nM.

In turn, `Cc1ccccc1CNc1nccc2c(C)c(C)n(Cc3ccc(F)cc3)c12` [Example 219, 1-(4-fluorobenzyl)-2,3-dimethyl-7-(2-methylbenzylamino)-1H-pyrrolo[2,3-c]pyridine hydrochloride] returned an IC50 of 1240 nM.

`CCNCc1cc2c(C)c(C)n(Cc3cccc(F)c3)c2c(N2CCc3ccccc3C2)n1` [Example 868, N-[7-(3,4-dihydro-1H-isoquinolin-2-yl)-1-(3-fluorobenzyl)-2,3-dimethyl-1H-pyrrolo[2,3-c]pyridin-5-ylmethyl]-ethylamine hydrochloride] yielded an IC50 of 39 nM.

Molecule `COc1cccc(Cn2c(C)c(C)c3cc(C(=O)n4ccnc4)nc(N4CCc5ccccc5C4)c32)c1` [Example 841, [7-(3,4-dihydro-1H-isoquinolin-2-yl)-1-(3-methoxybenzyl)-2,3-dimethyl-1H-pyrrolo[2,3-c]pyridin-5-yl]-(imidazol-1-yl)-methanone hydrochloride] had an IC50 of 242 nM.
